For series [1] the following is noted: in vivo, po.
For series [2] the following is noted: in vivo; cited from earlier work.
For series [3] the following is noted: human, in vivo, po.
For series [4] the following is noted: oral administration in suspension; cited from earlier work.

The structures appear in SMILES notation.

As usually defined, the Tmax is the time from dosing to the highest level.

With `CCN(CC)CCN1C(=O)CN=C(c2ccccc2F)c2cc(Cl)ccc21` [Flurazepam], in series [1], the “residual effect on Choice Reaction Time” value was “showed significant effect” and the “residual effect on Critical Flicker Fusion” value is listed as “showed significant effect”.
Take `CC(=O)[C@H]1CC[C@H]2[C@@H]3CC[C@H]4C[C@H](O)CC[C@]4(C)[C@H]3CC[C@]12C` [allopregnanolone, 3α, 5α-tetrahydroprogesterone]: the half-life result in series [2] is “about 35 minutes”.
Take `Oc1noc2c1CCNC2` [gaboxadol, 4,5,6,7-tetrahydroisoxazolo [5,4-c] pyridine-3-ol]: in series [3], the “AUC0-∞ Slope (90% CI), dose proportionality” value is on record as 0.98 (0.95, 1.01) and the “Cmax Slope (90% CI), dose proportionality” value is 0.95 (0.88, 1.02). Also, in series [1], the “residual effect on Choice Reaction Time” value is on record as “did not show residual effect”, the “residual effect on Critical Flicker Fusion” value is on record as “did not show residual effect”, the “residual effects on Body Sway” value is on record as “did not show any signs of residual effects” and the “residual effects on Digit symbol substitution test (DSST)” value is listed as “did not show any signs of residual effects”. Further, in series [1], the “residual effects on Leeds Sleep Evaluation Questionnaire” value is “did not show any signs of residual effects”, the “residual effects on Memory tests” value is “did not show any signs of residual effects”, the “residual effects on Multiple Sleep Latency Test (MSLT)” value is listed as “did not show any signs of residual effects” and the “residual effects on Tracking” value was “did not show any signs of residual effects”.
On to `CC(=O)[C@H]1CC[C@H]2[C@@H]3CC[C@H]4C[C@](C)(O)CC[C@]4(C)[C@H]3CC[C@]12C` [ganaxolone], for which, in series [4], the Tmax was 1.2 to 2.5 h and the plasma half-life result is listed as “approximately 20 h”.

Source of the values: US20220110917A1 (priority 2018, published 2022).
